# Measured values taken from patent publication US6551812B1, “Compositions and methods relating to the peroxisomal proliferator activated receptor-α mediated pathway” (CuraGen Corporation, priority 1998, dated 2003).
# Where two headings read alike, the source gives them in different places.
# Legend:
# [1] = test system: genes responsive to PPARαL treatment in rat liver; assay: GENECALLING differential gene expression analysis of liver from rats treated with PPARα ligand GW9578 vs vehicle control; format: in vivo
# Protocol: The present invention is based in part on the discovery of changes in expression patterns of multiple nucleic acid sequences, including sequences encoding known genes as well as heretofore undescribed nucleic acid sequences, in rodent liver cells following exposure to a ligand for a PPARα. The differences in gene expression were identified following administration of 1.5 mg/kg/day of a PPARα-specific ligand named GW9578. This compound is described in Brown et al., J. Med. Chem.42:3785-8, 1999, whose contents are incorporated herein in their entirety.
# GW9578 was administered to male 10-14 week old Sprague Dawley rats in b.i.d. dosing for 3 days. The animals were sacrificed 24 hours following the last dose, and liver tissue was analysis using the GENECALLING® sequence identification methods described U.S. Pat. No. 5,871,697. The contents of this application are incorporated herein by reference in their entirety.
# The GENECALLING® sequence identification method is performed by digesting a cDNA with a pair of restriction endonucleases. The digested fragments are differentially tagged at both the 3- and 5′-termini, and amplified via polymerase chain reaction (PCR) with a fluorescent label that is detected upon subsequent electrophoresis. In the studies with PPARα ligand GW9578, a total of 48 different reactions were performed, each with a unique pair of restriction enzymes. […] This number represents a non-redundant coverage of approximately 85% of the total number of hepatic genes.
# The hepatic response to treatment with the PPARαL compound was determined by comparing in triplicate the relative abundance of each of the 8973 gene fragments in the PPARαL-treated vs. the PPARα-untreated rodents. Comparison was performed using commercially available GENESCAPE® expression analysis software. PPARαL administration detectably altered the expression of 218 of the 8973 (2.4%) hepatic genes fragments by greater than 1.5-fold. […] Novel genes, corresponding to fragments with no match within the database, were subsequently isolated and sequenced (FIG. 4). […] There was an excellent correlation between the expression analysis results derived by the GENECALLING® sequence identification methods in comparison with those results previously obtained by the use of reverse transcriptase-based PCR (“RT-PCR”) (See FIG. 3).
# Harlan Sprague Dawley rats 10-14 weeks old were treated with oral tablet doses of: (i) PPARαL in an n-methylglucamine carrier twice daily (b.i.d) for a total of 3 days (3 rats total) or (ii) PPARαL in an n-methylglucamine carrier twice daily (b.i.d.) for a total of 3 days (3 rats total) or (iii) the n-methylglucamine carrier alone twice daily (b.i.d.) for a total of 3 days (3 rats total). On the fourth day, approximately 12 hours following the last dose of drug the animals were sacrificed. Liver and adipose tissue were harvested from all animals and snap frozen in liquid nitrogen.
# Total cellular RNA was isolated with Trizol (GIBCO-BRL; Baltimore Md.) using a one-tenth volume of bromochloropropane (Molecular Research Corp.; Cincinnati, Ohio) to facilitate phase separation. Contaminating DNA was removed by treatment with DNase I (Promega Biotech; Milwaukee, Wis.) in the presence of 0.01 M DTT (GIBCO-BRL; Baltimore, Md.) and 1 Unit/1 RNAsin (Promega Biotech; Milwaukee, Wis.). Following phenol/chloroform extraction, RNA quality was evaluated by spectrophotometry and formaldehyde agarose gel electrophoresis, and RNA yield was estimated by fluorometry with OliGreen® (Molecular Probes; Eugene, Oreg.). Poly(A)^+ RNA was prepared from […] of total RNA by use of oligo(dT) paramagnetic beads (PerSeptive Biosynthesis; Boston, Mass.), and quantitated with fluorometry.
# First strand cDNA was prepared from […] of poly(A)^+ RNA with 200 pmoles oligo(dT)25V (where V=A, C or G) (PerSeptive Biosynthesis; Boston, Mass.) using 40 Units of SuperScript II reverse transcriptase (GIBCO-BRL; Baltimore, Md.). […]
# Histidine decarboxylase = settings: rat stomach; cited from earlier work
# CYP2B1 [2] = settings: rat hepatocytes; cited from earlier work
# acetyl CoA carboxylase = settings: co-incubation of hepatocytes with ligand; cited from earlier work
# GSTa isoform = settings: rat livers, precancerous change; cited from earlier work
# CYP2B1 [3] = settings: in vivo mouse model; cited from earlier work
# [4] = rat liver, 1.5 mg/kg/day b.i.d. 3 days, vs vehicle control
# [5] = rat liver, treatment with PPARαL
# [6] = rat liver, upon treatment with PPARα ligand
structure (smiles),measurement,setting,value
CCCCCCCN(CCc1ccc(SC(C)(C)C(=O)O)cc1)C(=O)Nc1ccc(F)cc1F [GW9578],number of the 8973 hepatic gene fragments whose expression was altered by greater than 1.5-fold,"[1]; 1.5 mg/kg/day, b.i.d. for 3 days, male Sprague Dawley rats, liver, treated vs untreated, triplicate",218
same,D-aminolevulinate synthetase up-regulation,[1]; [4],4 fold
same,acetoacetyl-CoA thiolase upregulation,[1]; [4],100 fold
same,acetyl-CoA-decarboxylase modulation,[1]; [4],+2 fold
same,apolipoprotein A-I modulation,[1]; [4],−2 fold
same,carnitine octanoyl transferase upregulation,[1]; [4],4 fold
same,catalase upregulation,[1]; [4],12 fold
same,down-regulation of metallothionein 1,[1]; [4],100 fold
same,epoxide hydrolase upregulation,[1]; [4],10 fold
same,novel isoform of acyl-CoA oxidase upregulation,[1]; [4],10 fold
same,porphobilinogen deaminase up-regulation,[1]; [4],60 fold
same,reduction in steroid 3-α-dehydrogenase transcript levels,[1]; [4],60 fold
same,steroid 3-delta-dehydrogenase modulation,[1]; [4],off
same,very long chain acyl CoA synthetase upregulation,[1]; [4],4 fold
same,"novel gene similar in sequence to mouse carnitine acetyltransferase, expression","[1]; rat liver, following PPARα ligand treatment",moderately upregulated
same,histidine decarboxylase gene upregulation,"[1]; rat liver, following exposure to PPARα ligand",six
same,17-α-hydroxysteroid dehydrogenase IV transcription,[1]; [5],up-regulated
same,"genes encoding the other steroid catabolism enzymes (steroid-3-α-dehydrogenase, hydroxysteroid sulfotransferase, CYP p450 M1, SMP-2, UDP-glucosuronyl transferase 21)",[1]; [5],downregulated
same,acetyl-CoA carboxylase expression,[1]; [6],upregulation
same,decrease in expression of the gene for glutathione S transferase Ya subunit,[1]; [6],three
same,differential regulation of ATP citrate lyase and fatty acid synthase,[1]; [6],not detected
same,malic enzyme expression,[1]; [6],upregulation
same,stearyl-CoA desaturase expression,[1]; [6],upregulation
CC(C)(Oc1ccc(C2CC2(Cl)Cl)cc1)C(=O)O (stereo not shown) [ciprofibrate],histidine decarboxylase expression,Histidine decarboxylase,upregulated
CC(C)(Oc1ccc(Cl)cc1)C(=O)O [clofibric acid],"gene encoding CYP2B1, expression",CYP2B1 [2],upregulated
CC(C)(Oc1ccc(C2CCCc3ccccc32)cc1)C(=O)O (stereo not shown) [nafenopin],acetyl CoA carboxylase activity,acetyl CoA carboxylase,reduced
same,GSTa isoform level,GSTa isoform,decrease
CCOC(=O)C(C)(C)Oc1ccc(Cl)cc1 [clofibrate],"gene encoding CYP2B1, expression",CYP2B1 [3],not been observed to change
